Measured values reported in patent US12544372B2, “Methods of treating rheumatoid arthritis, chronic spontaneous urticaria, and systemic lupus erythematosis using an inhibitor of Bruton's tyrosine kinase” (Genentech, Inc., priority 2019, dated 2026).

Tested on: IgG anti-FcERI autoantibodies
Assay: CSU study: serum IgG anti-FcERI autoantibodies (immunoassay)
Format: in vivo, human
Conditions: Cohorts 1 and 2, serum, week 0 to 8
Description: Some patient samples were also evaluated specifically for IgG anti-FcERI autoantibodies, and the level of those autoantibodies over time in fenebrutinib-administered patients compared to placebo-administered patients is shown in FIG. 37. Serum samples were collected at 0 and 8 weeks from patients receiving fenebrutinib (left) versus placebo (right), with samples sizes for each group shown. Prior to direct FcERI immunoassay, samples were split and pre-incubated with equimolar concentrations of rhFcERI or an unrelated control protein. Reactivity levels were determined relative to a mouse monoclonal antibody standard. IgG anti-FcERI was defined as the difference in reactivity between the split samples, and is shown in relative units (RU). The bold lines without markers represent the average of patients who were anti-FcERI positive at baseline. The dotted line represents the mean+3 standard deviations of healthy volunteer samples. Some sample lines for IgG anti-FcERI negative patients overlap at the lower end of the assay range. […] Without wishing to be bound by any theory, it is thought that anti-FcERI may be a driver of positive CU index test results, and are associated with refractory CSU.

With `C[C@H]1CN(C2COC2)CCN1c1ccc(Nc2cc(-c3ccnc(N4CCn5c(cc6c5CC(C)(C)C6)C4=O)c3CO)cn(C)c2=O)nc1` [fenebrutinib, (S)-2-(3′-(hydroxymethyl)-1-methyl-5-((5-(2-methyl-4-(oxetan-3-yl)piperazin-1-yl)pyridin-2-yl)amino)-6-oxo-1,6-dihydro-[3,4′-bipyridin]-2′-yl)-7,7-dimethyl-2,3,4,6,7,8-hexahydro-1H-cyclopenta[4,5]pyrrolo[1,2-a]pyrazin-1-one] the “IgG anti-FcERI autoantibodies” value was “significant reduction”.
